These results are taken from ChEMBL document CHEMBL1135086.

This assay has as its target Nitric oxide synthase 1 (Rattus norvegicus) (UniProt P29476). Description: Effect on the activity of recombinant rat neuronal nitric oxide synthase as determined with radioactive L-arginine/L-citruline conversion assay. Also on record: concentration or dose not given beside the values. Conditions: concentration not given here.

Usually inhibition stands for the relative decrease from the control value, in per cent.

Chain of Nitric oxide synthase 1 (Rattus norvegicus) (P29476 whole entry): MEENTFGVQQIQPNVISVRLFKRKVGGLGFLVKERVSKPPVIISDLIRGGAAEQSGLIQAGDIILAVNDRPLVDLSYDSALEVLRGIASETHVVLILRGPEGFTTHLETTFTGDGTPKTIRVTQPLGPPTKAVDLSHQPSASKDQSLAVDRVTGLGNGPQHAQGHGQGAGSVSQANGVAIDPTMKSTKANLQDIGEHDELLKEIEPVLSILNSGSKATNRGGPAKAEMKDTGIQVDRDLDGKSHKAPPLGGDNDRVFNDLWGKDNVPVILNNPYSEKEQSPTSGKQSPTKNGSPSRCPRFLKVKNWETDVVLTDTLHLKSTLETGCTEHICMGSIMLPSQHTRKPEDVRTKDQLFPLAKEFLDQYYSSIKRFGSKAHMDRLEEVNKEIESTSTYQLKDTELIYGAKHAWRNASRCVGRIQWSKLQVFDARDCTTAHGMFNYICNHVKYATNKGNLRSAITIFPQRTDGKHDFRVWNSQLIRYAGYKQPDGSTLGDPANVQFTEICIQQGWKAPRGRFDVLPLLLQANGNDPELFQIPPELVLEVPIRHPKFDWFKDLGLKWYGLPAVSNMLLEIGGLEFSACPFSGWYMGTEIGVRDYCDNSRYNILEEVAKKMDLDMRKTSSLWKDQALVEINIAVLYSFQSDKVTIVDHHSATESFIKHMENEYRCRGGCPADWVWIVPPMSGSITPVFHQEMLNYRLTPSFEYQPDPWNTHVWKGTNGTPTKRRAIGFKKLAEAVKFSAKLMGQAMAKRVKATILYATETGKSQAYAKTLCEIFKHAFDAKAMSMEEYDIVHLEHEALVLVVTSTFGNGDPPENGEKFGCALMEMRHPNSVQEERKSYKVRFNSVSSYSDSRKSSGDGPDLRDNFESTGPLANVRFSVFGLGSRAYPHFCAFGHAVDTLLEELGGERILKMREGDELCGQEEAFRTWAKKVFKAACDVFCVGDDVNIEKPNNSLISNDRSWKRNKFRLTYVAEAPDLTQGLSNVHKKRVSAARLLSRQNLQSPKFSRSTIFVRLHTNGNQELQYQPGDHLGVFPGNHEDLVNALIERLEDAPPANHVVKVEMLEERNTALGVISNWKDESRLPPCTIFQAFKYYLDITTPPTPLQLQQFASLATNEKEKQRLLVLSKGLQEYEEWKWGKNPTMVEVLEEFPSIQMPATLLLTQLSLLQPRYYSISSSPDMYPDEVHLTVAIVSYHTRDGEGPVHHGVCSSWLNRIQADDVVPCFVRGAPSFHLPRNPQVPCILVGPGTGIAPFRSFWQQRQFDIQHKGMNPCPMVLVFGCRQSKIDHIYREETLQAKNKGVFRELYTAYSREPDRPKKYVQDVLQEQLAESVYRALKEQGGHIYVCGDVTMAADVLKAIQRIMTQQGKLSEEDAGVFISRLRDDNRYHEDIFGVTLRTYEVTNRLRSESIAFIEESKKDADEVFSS

`O=[N+]([O-])c1cccc(O)c1O`: the inhibition was 94%. For `NCCc1cc(O)c(O)cc1[N+](=O)[O-]`, the inhibition stood at 71%.

`Cc1cc([N+](=O)[O-])cc(O)c1O`: the inhibition amounted to 28%.

For `O=[N+]([O-])c1ccc(O)c(O)c1`, the inhibition was 33%. To `Cc1cc(O)c(O)cc1[N+](=O)[O-]` belongs 35%. The figure for `NCC(O)c1cc(O)c(O)cc1[N+](=O)[O-]` (stereo unspecified) is 78%.
